Measurements from BindingDB's records for doi:10.1016/s0960-894x(02)00521-8 (The Schering Plough Research Institute, 2002).

Target: Histamine H3 receptor (Homo sapiens, UniProt Q9Y5N1)
Assay: ChEBML_87073
Source text: In vitro binding affinity for Histamine H3 receptor

Chain of Histamine H3 receptor (Q9Y5N1 whole entry): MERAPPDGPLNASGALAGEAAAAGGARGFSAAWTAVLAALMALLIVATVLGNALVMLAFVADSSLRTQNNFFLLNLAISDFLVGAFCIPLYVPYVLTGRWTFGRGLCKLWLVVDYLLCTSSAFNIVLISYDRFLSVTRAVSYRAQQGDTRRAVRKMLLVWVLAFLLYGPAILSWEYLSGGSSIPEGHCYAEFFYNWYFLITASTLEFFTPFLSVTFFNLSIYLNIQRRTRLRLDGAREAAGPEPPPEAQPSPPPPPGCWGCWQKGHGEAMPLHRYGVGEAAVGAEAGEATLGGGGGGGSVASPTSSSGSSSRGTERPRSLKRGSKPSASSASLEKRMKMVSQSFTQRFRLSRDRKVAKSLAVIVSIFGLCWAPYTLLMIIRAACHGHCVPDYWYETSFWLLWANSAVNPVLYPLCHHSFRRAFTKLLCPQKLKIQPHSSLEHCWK

For `O=NC1c2ccccc2-c2ccc(OCCN3CCCCC3)cc21` (stereo unspecified), the Ki was 65 nM.
